The source of these data is patent US12215234B2, “Process for the purification of methylene blue” (RK Pharma Solutions LLC, priority 2019, dated 2025).

Assay type in all cases: physicochemical
Data set [1] can be described thus: Stability study of methylene blue at about 40° C. (40/75), six months. Conditions: stability at 40° C., Trial 1-3. As to the method: (§1) Methylene blue product obtained by this process is then loaded for stability at about 20-25° C. and at about 40° C. Purity and metal content of Methylene blue is tested for up to six months.
The nature of data set [2]: pH of formulation containing methylene blue made by the prior-art process. Conditions: methylene blue by process of Fundamental Processes of Dye Chemistry, isolated in the range of 3.0-4.5; pH increases. An excerpt:
Desired pH for the methylene blue formulation as per USP is in between 3.0-4.5.
Another area of concern is pH of formulated methylene blue. USP mentions that pH of methylene blue formulation should be in between about 3.0 to about 4.5. In formulation, pH of Methylene blue solution tends to increase drastically when the pH of the active pharmaceutical ingredient (API) is kept in between about 3.0 to about 4.5 as per prior art process. To overcome such a problem, the reaction mass pH is preferably kept less than about 2 and more preferably pH of less than about 1. Suitable acids for the adjustment of pH to below about 1 includes, but is not limited to, hydrochloric acid.

A short description of data set [3]: Stability study of methylene blue at about 20-25° C. (25/60), six months. Details: Highest Unknown / Total impurities / Azure B / Azure C: unit not given here. Particulars: stability at 25° C., Trial 1-3. The protocol:
as §1

Where “and” joins values, the source holds several entries; their conditions need not be identical. Equal values may be shown once.

Regarding `CN(C)c1ccc2nc3ccc(N(C)C)cc3[s+]c2c1` [Methylene blue, 3,7-bis(dimethylamino)phenothiazin-5-ylium chloride], the “Azure B” value is 2.41 and 2.26 in data set [1] (impurity, 6M 40/75); 2.37 and 2.2 and 2.17 in data set [3] (impurity, 6M 25/60). Moreover, the “Azure C” value in data set [1] (impurity, 6M 40/75) is recorded as 0.01; in data set [3] (impurity, 6M 25/60), 0.01. In addition, the “Metal Content Mn” value in data set [1] (6M 40/75) was 0.49 ppm and 0.51 ppm; in data set [3] (6M 25/60), 0.68 ppm and 0.61 ppm and 0.48 ppm. Also, the Total impurities in data set [1] (6M 40/75) was 2.5 and 2.46 and 2.52; in data set [3] (6M 25/60), 2.46 and 2.4 and 2.44. In addition, the Total metal content in data set [1] (6M 40/75, sum of Al, Cr, Cu, Mn, Zn) is 74.97 ppm and 62.91 ppm and 62.48 ppm; in data set [3] (6M 25/60, sum of Al, Cr, Cu, Mn, Zn) it was 76.51 ppm and 75.6 ppm and 57.41 ppm. Moreover, the Purity in data set [1] (profile 6M 40/75) was 97.5 and 97.54 and 97.48; in data set [3] (profile 6M 25/60), 97.54 and 97.6 and 97.56. Moreover, the “pH of the formulation containing methylene blue” value in data set [2] was “above 4.5”. Also, the “Highest Unknown” value in data set [3] (impurity, 6M 25/60) is 0.04 and 0.06 and 0.08.
